In patent US4970204A, “3-substituted nitro-steroid derivatives as 5-α-reductase inhibitors” (SmithKline Beecham Corporation, priority 1989, dated 1990):
Where two headings read alike, the source gives them in different places.

Biological target: T1, human steroid 5-α-reductase (Homo sapiens, UniProt P31213)
T1 construct: Frozen human prostates were thawed and minced into small pieces; from tissue; host or cells: hyperplastic human prostate, washed 140,000×g particulate fraction
T1 sequence (P31213 1-254): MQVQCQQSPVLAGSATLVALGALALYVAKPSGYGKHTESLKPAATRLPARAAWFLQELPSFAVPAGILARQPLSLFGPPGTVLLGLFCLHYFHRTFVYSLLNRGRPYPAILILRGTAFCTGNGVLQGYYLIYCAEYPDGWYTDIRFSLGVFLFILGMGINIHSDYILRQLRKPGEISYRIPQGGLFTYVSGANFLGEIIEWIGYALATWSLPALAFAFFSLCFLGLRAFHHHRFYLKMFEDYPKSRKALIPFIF
Assay: inhibition of human steroid 5-α-reductase using tissue from hyperplastic human prostates
Assay type: biochemical
Method: The tissue was homogenized in 3 to 5 volumes of 20 mM potassium phosphate, pH 6.5, buffer containing 0.33 M sucrose, 1 mM dithiothreitol, and 50 μM NADPH with a Brinkmann Polytron (Sybron Corporation, Westbury, N.Y.).
The resulting pellet was suspended in 20 mM potassium phosphate buffer, pH 6.5, containing 20% glycerol, 1 mM dithiothreitol, and 50 μM NADPH. The suspended particulate solution was stored at -80° C.
After incubating the solution at 37° C. for 20 to 30 minutes the reaction was quenched by the addition of 4 ml ethyl acetate and 0.25 μmol each of testosterone, dihydrotestosterone, androstanediol, and androstanedione as carriers. The organic layer was removed to a second test tube and evaporated to dryness in vacuo. […] The radiochemical content in the bands of the substrate and the products was determined with a BIOSCAN Imaging Scanner (Bioscan, Inc., Washington, D.C.). The percent of recovered radiolabel converted to product was calculated, from which enzyme activity was determined. All incubations were conducted such that no more than 12% of the substrate (testosterone) was consumed.
Assuming that the steroidal inhibitor is a competitive inhibitor against testosterone, a value for the inhibition constant (Ki) can be calculated from equation 1: […]

Ki (human prostatic particulate enzyme, [14C]-testosterone substrate, pH 5.0, 37° C., 20 to 30 minutes, Dixon plot, assuming competitive inhibition against testosterone, read-out: inhibition constant (Ki)) [nM]	Compound	Ki [nM]
–	CC(C)N(C(=O)[C@H]1CC[C@H]2[C@@H]3CC[C@H]4CC([N+](=O)[O-])=CC[C@]4(C)[C@H]3CC[C@]12C)C(C)C [2-ene analogue, 17β-N,N-diisopropylcarboxamide-3-nitro-5-α-androst-2-ene]	250
50	CC(C)N(C(=O)[C@H]1CC[C@H]2[C@@H]3CC[C@H]4C=C([N+](=O)[O-])CC[C@]4(C)[C@H]3CC[C@]12C)C(C)C [17β-N,N-Diisopropylcarboxamide-3-nitro-5-α-androst-3-ene]	–
